Assay [1] deals with BALB/c mice. Description: Dexamethasone-induced spleen and thymus weight and cell count loss in mice, Example 1 (FIG. 1). It counts as in vivo, mouse. To be noted: 100 μg Dexamethasone IP; for reduction of cell count loss (spleen and thymus) / reduction of the amount of dexamethasone-induced spleen and/or thymus weight loss: BALB/c mice, peptide IV 250 or 400 μg/mouse immediately and 24 h after, sacrifice at 48 h, no difference between the 2 doses. As to the method: The peptides described herein are capable of reducing the amount of dexamethasone-induced spleen and/or thymus weight loss in a mouse—e.g. following injection (IP) with 100 μg of Dexamethasone.
Dexamethasone is a corticosteroid medication that induces apoptosis of immune cells and lymphomyeloid tissues. BALB/c mice were used to examine the ability of candidate peptides to rescue lymphocyte cells from apoptosis. Mice were injected IP with 100 μg of Dexamethasone. Dexamethasone-treated mice received immediately following and 24-hours after dexamethasone treatment IV injection of candidate peptides (250 or 400 μg peptide/mouse). Mice were sacrificed 48 hours after the first treatment. The spleen and the thymus were weighted and full cell count of both organs was performed.

Assay [2] relates to BALB/c mice. Put plainly: Dexamethasone-induced spleen and thymus weight and cell count loss in mice, Example 2 (FIG. 2). Format: in vivo. To be noted: 100 μg Dexamethasone IP, peptide IV 200 μg/mouse immediately and 24 h after, sacrifice at 48 h. The method, then: BALB/c mice were used to examine the ability of candidate peptides to rescue lymphocyte cells from apoptosis. Mice were injected IP with 100 μg of Dexamethasone. Dexamethasone-treated mice received immediately following and 24-hours after dexamethasone treatment IV injection of candidate peptides (200 μg peptide/mouse). Mice were sacrificed 48 hours after the first treatment. The spleen and the thymus were weighted and full cell count of both organs was performed.

Experimental findings from US11912790B2, “Peptide compounds and therapeutic uses of same” (Immunity Pharma Ltd., priority 2018, dated 2024) are described below.

Entries after “also recorded” stand apart in the source; their conditions may differ. No end group written: not given here.

Turning to `C[C@@H]1C[C@H]2[C@@H]3CCC4=CC(=O)C=C[C@]4(C)[C@@]3(F)[C@@H](O)C[C@]2(C)[C@@]1(O)C(=O)CO` [Dexamethasone, reference compound], in the assay with BALB/c mice [1] (48 h, compared to normal mice), the “spleen and thymus weight loss and reduction in spleen cell count induced by dexamethasone” value is “about 50%”; the “thymus cell count reduction induced by dexamethasone” value is about 80%.
Consider LPPLAYP [SEQ ID NO: 4], for which, in the assay with BALB/c mice [1], the “reduction of cell count loss (spleen and thymus)” value is “significant effect”; the “reduction of the amount of dexamethasone-induced spleen and/or thymus weight loss” value is reported as “significant effect; also recorded: significantly reduced”.
Taken in the same sequence, the figures for “PPLPY (not fully specified (C-terminus)) [SEQ ID NO: 3]” were “significant effect” and “significant effect; also recorded: significantly reduced”.
PPLAYP [SEQ ID NO: 18]: the “reduction of the amount of dexamethasone-induced spleen and/or thymus weight loss” value with BALB/c mice [2] was “significant improvement”.
